Results from ChEMBL document CHEMBL2040800 (J Med Chem, 2012).
Values after ≈ are worked out from the molar mass of the structure shown. Active and inactive are the calls of the source. The rule behind the calls is not given here.

How the values were obtained:
Plasmodium falciparum [1] = experiment: Antimalarial activity against ring stage Plasmodium falciparum 3D7 at 1.82 uM after 72 hrs by DAPI-staining based confocal microscopy; format: functional
Plasmodium falciparum [2] = experiment: Antimalarial activity against ring stage Plasmodium falciparum Dd2 at 1.82 uM after 72 hrs by DAPI-staining based confocal microscopy; format: functional
[3] = Intrinsic clearance in human liver microsomes at 1 uM up to 60 mins; format: ADME, Microsome; conditions: read-out: CLH
[4] = AUC (0 to infinity) in Sprague-Dawley rat at […], iv; format: ADME, organism-based; design: time infinity, dose 4.7 mg/kg, route intravenous; conditions: plasma
[5] = Total blood clearance in Sprague-Dawley rat at […], iv; format: ADME, organism-based; design: dose 4.7 mg/kg, route intravenous; conditions: whole blood
Plasmodium berghei [6] = experiment: Antimalarial activity against Plasmodium berghei ANKA expressing GFP infected in Sprague-Dawley rat assessed as host survival at 3 mg/kg, po administered as single dose measured 6 days post-infection; format: functional, organism-based; design: dose 3 mg/kg
[7] = AUC (0 to infinity) in Sprague-Dawley rat at 22.3 mg/kg, po; format: ADME, organism-based; design: time infinity, dose 22.3 mg/kg, route oral; conditions: plasma
Plasmodium berghei [8] = experiment: Antimalarial activity against Plasmodium berghei ANKA expressing GFP infected in Sprague-Dawley rat assessed as reduction in parasitemia at 100 mg/kg, po administered as single dose measured on day 3 post-infection by flow cytometry; format: functional; design: scale not given: the % may be the effect or the level left
Plasmodium berghei [9] = experiment: Antimalarial activity against Plasmodium berghei ANKA expressing GFP infected in Sprague-Dawley rat assessed as mean survival days of host at 3 mg/kg, po administered as single dose; format: functional
[10] = Total plasma clearance in Sprague-Dawley rat at […], iv; format: ADME, organism-based; design: dose 4.7 mg/kg, route intravenous
Plasmodium berghei [11] = experiment: Antimalarial activity against Plasmodium berghei ANKA expressing GFP infected in Sprague-Dawley rat assessed as mean survival days of host at 50 mg/kg, po administered as 4 doses; format: functional
[12] = Oral bioavailability in Sprague-Dawley rat at 22.3 mg/kg; format: ADME, organism-based; conditions: in vivo
[13] = Tmax in Sprague-Dawley rat at 5 mg/kg, po; format: ADME, organism-based; design: dose 5 mg/kg, route oral; conditions: in vivo
Plasmodium berghei [14] = experiment: Antimalarial activity against Plasmodium berghei ANKA expressing GFP infected in Sprague-Dawley rat assessed as reduction in parasitemia at 3 mg/kg, po administered as single dose measured on day 3 post-infection by flow cytometry; format: functional; design: scale not given: the % may be the effect or the level left
Plasmodium berghei [15] = experiment: Antimalarial activity against Plasmodium berghei ANKA expressing GFP infected in Sprague-Dawley rat assessed as mean survival days of host at 30 mg/kg, po administered as single dose; format: functional
Plasmodium berghei [16] = experiment: Antimalarial activity against Plasmodium berghei ANKA expressing GFP infected in Sprague-Dawley rat assessed as mean survival days of host at 100 mg/kg, po administered as single dose; format: functional
[17] = Volume of distribution at steady state in Sprague-Dawley rat at […], iv; format: ADME, organism-based; design: dose 4.7 mg/kg, route intravenous; conditions: in vivo, read-out: Vdss
Plasmodium berghei [18] = experiment: Antimalarial activity against Plasmodium berghei ANKA expressing GFP infected in Sprague-Dawley rat assessed as total cure from parasite at 50 mg/kg, po administered as 4 doses measured on day 30 post-infection by flow cytometry; format: functional, organism-based; design: dose 50 mg/kg
[19] = Oral bioavailability in Sprague-Dawley rat at 5 mg/kg; format: ADME, organism-based; conditions: in vivo
Plasmodium berghei [20] = experiment: Antimalarial activity against Plasmodium berghei ANKA expressing GFP infected in Sprague-Dawley rat assessed as reduction in parasitemia at 30 mg/kg, po administered as single dose measured on day 3 post-infection by flow cytometry; format: functional; design: scale not given: the % may be the effect or the level left
Plasmodium berghei [21] = experiment: Antimalarial activity against Plasmodium berghei ANKA expressing GFP infected in Sprague-Dawley rat assessed as mean survival days of host at 10 mg/kg, po administered as single dose; format: functional
[22] = Cmax in Sprague-Dawley rat at 22.3 mg/kg, po; format: ADME, organism-based; design: dose 22.3 mg/kg, route oral; conditions: in vivo
[23] = Cmax in Sprague-Dawley rat at 5 mg/kg, po; format: ADME, organism-based; design: dose 5 mg/kg, route oral; conditions: in vivo
[24] = Tmax in Sprague-Dawley rat at 22.3 mg/kg, po; format: ADME, organism-based; design: dose 22.3 mg/kg, route oral; conditions: in vivo
[25] = Apparent terminal half life in Sprague-Dawley rat at 22.3 mg/kg, po; format: ADME, organism-based; design: dose 22.3 mg/kg, route oral; conditions: in vivo, read-out: betat1/2(app) (converted)
Plasmodium berghei [26] = experiment: Antimalarial activity against Plasmodium berghei ANKA expressing GFP infected in Sprague-Dawley rat assessed as reduction in parasitemia at 10 mg/kg, po administered as single dose measured on day 3 post-infection by flow cytometry; format: functional; design: scale not given: the % may be the effect or the level left
[27] = Apparent terminal half life in Sprague-Dawley rat at […], iv; format: ADME, organism-based; design: dose 4.7 mg/kg, route intravenous; conditions: in vivo, read-out: betat1/2(app) (converted)
Plasmodium berghei [28] = experiment: Antimalarial activity against Plasmodium berghei ANKA expressing GFP infected in po dosed Sprague-Dawley rat assessed as reduction in parasitemia administered as single dose measured on day 3 post-infection by flow cytometry; format: functional; conditions: 72 h
[29] = AUC (0 to infinity) in Sprague-Dawley rat at 5 mg/kg, po; format: ADME, organism-based; design: time infinity, dose 5 mg/kg, route oral; conditions: plasma
[30] = Half life in human liver microsomes at 1 uM; format: ADME, Microsome
[31] = Partition coefficient, log D of the compound at pH 7.4 by phase gradient HPLC analysis; format: physicochemical; conditions: octanol/water
Plasmodium berghei [32] = experiment: Antimalarial activity against Plasmodium berghei ANKA expressing GFP infected in Sprague-Dawley rat assessed as reduction in parasitemia at 50 mg/kg, po administered as 4 doses measured on day 4 post-infection by flow cytometry; format: functional; design: scale not given: the % may be the effect or the level left
[33] = Apparent terminal half life in Sprague-Dawley rat at 5 mg/kg, po; format: ADME, organism-based; design: dose 5 mg/kg, route oral; conditions: in vivo, read-out: betat1/2(app) (converted)
[34] = Kinetic solubility of the compound in phosphate buffer after 30 mins by nephelometry at pH 6.5; format: physicochemical; conditions: read-out: Kinetic_solubility
Plasmodium falciparum [35] = experiment: Antimalarial activity against chloroquine-sensitive Plasmodium falciparum NF54 after 24 hrs by hypoxanthine incorporation assay; format: functional, organism-based; conditions: NF54, 24 h
Plasmodium falciparum [36] = experiment: Antimalarial activity against chloroquine-resistant Plasmodium falciparum K1 after 24 hrs by hypoxanthine incorporation assay; format: functional, organism-based; conditions: K1, 24 h
[37] = Plasma protein binding in human by reverse phase gradient HPLC analysis; format: ADME, cell-free; conditions: read-out: PPB (converted)

COc1ccc(-c2cnc(N)c(-c3ccc(O)c(OC)c3)c2)cc1
Activity (Plasmodium falciparum [1]): 50%
Activity (Plasmodium falciparum [2]): 50%

COc1ccc(-c2cc(-c3ccc(S(C)(=O)=O)cc3)cnc2N)cn1
microsomal CLint at 1 µM [3]: < 28 µL/min/mg
AUC(0-inf) [4]: 13.2 µM·h
clearance [5]: 18.3 mL/min/kg
Activity (Plasmodium berghei [6]): inactive
AUC(0-inf) [7]: 115 µM·h
Activity (Plasmodium berghei [8]): >99.3%
MSD (Plasmodium berghei [9]): 3 days
clearance [10]: 16.7 mL/min/kg
MSD (Plasmodium berghei [11]): >30 days
bioavailability [12]: > 100%
Tmax [13]: 0.25 h
Activity (Plasmodium berghei [14]): <40%
MSD (Plasmodium berghei [15]): 8 days
MSD (Plasmodium berghei [16]): 21 days
Vd [17]: 4.3 L/kg
Activity (Plasmodium berghei [18]): Active
bioavailability [19]: 83%
Activity (Plasmodium berghei [20]): 99%
MSD (Plasmodium berghei [21]): 7 days
Cmax [22]: 21 µM
Cmax [23]: 5.4 µM
Tmax [24]: 1.75 h
half-life [25]: 6.5 h
Activity (Plasmodium berghei [26]): 82%
half-life [27]: 8 h
ED50 (Plasmodium berghei [28]): 4.7 mg/kg
ED90 (Plasmodium berghei [28]): 17 mg/kg
AUC(0-inf) [29]: 11.8 µM·h
half-life at 1 µM [30]: > 1.65 h
chromatographic logD [31]: 2.2
Activity (Plasmodium berghei [32]): 99.8%
half-life [33]: 6.7 h

CS(=O)(=O)c1ccc(-c2cnc(N)c(-c3ccc(C(F)(F)F)c(F)c3)c2)cc1
microsomal CLint at 1 µM [3]: 14 µL/min/mg
solubility kinetic at 0.5 h [34]: 1.6 µg/mL (≈ 3.9 µM)
IC50 (Plasmodium falciparum [35]): 78 nM
IC50 (Plasmodium falciparum [36]): 58 nM
half-life at 1 µM [30]: 2.05 h
chromatographic logD [31]: 3.1
fraction unbound [37]: 0.052

CNC(=O)c1ccc(-c2cc(-c3ccc(S(C)(=O)=O)cc3)cnc2N)cc1
microsomal CLint at 1 µM [3]: < 5 µL/min/mg
Activity (Plasmodium berghei [8]): 98%
MSD (Plasmodium berghei [11]): 9 days
MSD (Plasmodium berghei [15]): 7 days
MSD (Plasmodium berghei [16]): 6 days
Activity (Plasmodium berghei [20]): 77%
solubility kinetic at 0.5 h [34]: 25 µg/mL (≈ 65.5 µM)
IC50 (Plasmodium falciparum [35]): 79 nM
IC50 (Plasmodium falciparum [36]): 71 nM
half-life at 1 µM [30]: > 5.83 h
chromatographic logD [31]: 1.7
Activity (Plasmodium berghei [32]): 99.7%
fraction unbound [37]: 0.182

CS(=O)(=O)c1ccc(-c2cnc(N)c(-c3ccc(C#N)cc3)c2)cc1
microsomal CLint at 1 µM [3]: < 5 µL/min/mg
Activity (Plasmodium berghei [8]): >99.4%
MSD (Plasmodium berghei [11]): >30 days
MSD (Plasmodium berghei [15]): 10 days
MSD (Plasmodium berghei [16]): 14 days
Activity (Plasmodium berghei [20]): 99.1%
solubility kinetic at 0.5 h [34]: 1.6 µg/mL (≈ 4.58 µM)
IC50 (Plasmodium falciparum [35]): 160 nM
IC50 (Plasmodium falciparum [36]): 150 nM
half-life at 1 µM [30]: > 5.83 h
chromatographic logD [31]: 2.4
Activity (Plasmodium berghei [32]): 99.7%

COc1cc(-c2cc(-c3ccc(S(C)(=O)=O)cc3)cnc2N)ccc1O
microsomal CLint at 1 µM [3]: 17 µL/min/mg
Activity (Plasmodium falciparum [1]): >80%
solubility kinetic at 0.5 h [34]: 6.3 µg/mL (≈ 17 µM)
IC50 (Plasmodium falciparum [35]): 49 nM
IC50 (Plasmodium falciparum [36]): 49 nM
Activity (Plasmodium falciparum [2]): >80%
half-life at 1 µM [30]: 1.72 h
chromatographic logD [31]: 1.9
fraction unbound [37]: 0.172

CS(=O)(=O)c1ccc(-c2cnc(N)c(-c3ccc(F)nc3)c2)cc1
microsomal CLint at 1 µM [3]: < 7 µL/min/mg
solubility kinetic at 0.5 h [34]: 25 µg/mL (≈ 72.8 µM)
IC50 (Plasmodium falciparum [35]): 640 nM
IC50 (Plasmodium falciparum [36]): 500 nM
half-life at 1 µM [30]: 4.12 h
chromatographic logD [31]: 1.1
fraction unbound [37]: 0.431
